Here are results for 1 compound from patent US11560455B2, “Method for rapid gelation of silk fibroin solution under physiological conditions” (SOOCHOW UNIVERSITY, priority 2017, dated 2023).

In the series the test system is Human umbilical vein endothelial cells (HUVECs). The series is described as follows: Cell viability by CCK-8 assay. Format: cell-based. Conditions: 24 h, NapFF 10.0-200.0 μM, silk fibroin 0.1-2.0%, FIG. 9. Here is the method:
The cell viability was detected by CCK-8 assay. Human umbilical vein endothelial cells (HUVECs) were dispersed in a 96-well plate (at a cell concentration of 4000 cells/well) and cultured for 24 h in a 5% CO2 atmosphere at 37° C. The previous medium was replaced with a medium containing different concentrations of NapFF (10.0 μM, 20.0 μM, 50.0 μM, 100.0 μM, and 200.0 μM) and silk fibroin solutions (0.1%, 0.2%, 0.5%, 1.0%, and 2.0%), which was in turn replaced with a CCK-8 solution after 24 h. Finally, the optical density value (OD value) of the solution at 450 nm was measured on a microplate reader. The cell viability is expressed as percentage of the number of control (untreated) cells. The cell viability of the control group was set to 100% by default, and all experiments were performed in 5 replications.
For orientation: Tetrazolium dyes change colour on reduction, which living cells bring about.

For `O=C(Cc1ccc2ccccc2c1)N[C@@H](Cc1ccccc1)C(=O)N[C@@H](Cc1ccccc1)C(=O)O` [NapFF, 2-naphthaleneacetic acid-phenylalanine-phenylalanine], the “Cytotoxicity (cell viability, CCK-8)” value is given as “good biocompatibility”.
